Data as given in ChEMBL document CHEMBL4017512 (J Med Chem, 2017).
pIC50: −log10 of the molar value.

Tests used:
HCT-116 = experiment: Antiproliferative activity against human HCT116 cells after 72 hrs by phosphatase assay; type: functional, cell-based; settings: HCT-116, 72 h
[1] = Cytotoxicity against human HCT116/VM46 cells assessed as reduction in cell viability after 72 hrs by phosphatase assay; type: cell-based; settings: HCT-116/VM46, 72 h
L1210 = experiment: Antiproliferative activity against mouse L1210 cells after 72 hrs by phosphatase assay; type: functional, cell-based; settings: L1210, 72 h

CC[C@]1(NC(=O)c2cccc(Cl)c2)C[C@H]2CN(CCc3c([nH]c4ccccc34)[C@@](C(=O)OC)(c3cc4c(cc3OC)N(C)[C@H]3[C@@](O)(C(=O)OC)[C@H](OC(C)=O)[C@]5(CC)C=CCN6CC[C@]43[C@@H]65)C2)C1
pIC50 (HCT-116): 8.57 | pIC50 [1]: 7.70 | pIC50 (L1210): 8.38

CC[C@]1(NC(=O)c2cscn2)C[C@H]2CN(CCc3c([nH]c4ccccc34)[C@@](C(=O)OC)(c3cc4c(cc3OC)N(C)[C@H]3[C@@](O)(C(=O)OC)[C@H](OC(C)=O)[C@]5(CC)C=CCN6CC[C@]43[C@@H]65)C2)C1
pIC50 (HCT-116): 8.20 | pIC50 [1]: 7.10 | pIC50 (L1210): 8.25

CC[C@]1(NC(=O)c2ccc(OC(C)C)cc2)C[C@H]2CN(CCc3c([nH]c4ccccc34)[C@@](C(=O)OC)(c3cc4c(cc3OC)N(C)[C@H]3[C@@](O)(C(=O)OC)[C@H](OC(C)=O)[C@]5(CC)C=CCN6CC[C@]43[C@@H]65)C2)C1
pIC50 (HCT-116): 9.10 | pIC50 [1]: 8.18 | pIC50 (L1210): 9.15

CC[C@]1(NC(=O)c2ccc(C#N)c(C)c2)C[C@H]2CN(CCc3c([nH]c4ccccc34)[C@@](C(=O)OC)(c3cc4c(cc3OC)N(C)[C@H]3[C@@](O)(C(=O)OC)[C@H](OC(C)=O)[C@]5(CC)C=CCN6CC[C@]43[C@@H]65)C2)C1
pIC50 (HCT-116): 8.21 | pIC50 [1]: 7.19 | pIC50 (L1210): 8.32

CC[C@]1(NC(=O)C2CCC2)C[C@H]2CN(CCc3c([nH]c4ccccc34)[C@@](C(=O)OC)(c3cc4c(cc3OC)N(C)[C@H]3[C@@](O)(C(=O)OC)[C@H](OC(C)=O)[C@]5(CC)C=CCN6CC[C@]43[C@@H]65)C2)C1
pIC50 (HCT-116): 8.27 | pIC50 [1]: 7.07 | pIC50 (L1210): 8.27

CC[C@]1(NC(=O)c2cc(C)cc(C)c2)C[C@H]2CN(CCc3c([nH]c4ccccc34)[C@@](C(=O)OC)(c3cc4c(cc3OC)N(C)[C@H]3[C@@](O)(C(=O)OC)[C@H](OC(C)=O)[C@]5(CC)C=CCN6CC[C@]43[C@@H]65)C2)C1
pIC50 (HCT-116): 8.22 | pIC50 [1]: 8.04 | pIC50 (L1210): 8.27

CC[C@]1(N)C[C@H]2CN(CCc3c([nH]c4ccccc34)[C@@](C(=O)OC)(c3cc4c(cc3OC)N(C)[C@H]3[C@@](O)(C(=O)OC)[C@H](OC(C)=O)[C@]5(CC)C=CCN6CC[C@]43[C@@H]65)C2)C1
pIC50 [1]: < 5.00

CC[C@]1(NC(=O)c2ccc(OC)c(OC)c2)C[C@H]2CN(CCc3c([nH]c4ccc(F)cc34)[C@@](C(=O)OC)(c3cc4c(cc3OC)N(C)[C@H]3[C@@](O)(C(=O)OC)[C@H](OC(C)=O)[C@]5(CC)C=CCN6CC[C@]43[C@@H]65)C2)C1
pIC50 (HCT-116): 10.10 | pIC50 [1]: 9.05 | pIC50 (L1210): 10.22

CC[C@]1(NC(=O)c2ccc3c(c2)ncn3C)C[C@H]2CN(CCc3c([nH]c4ccccc34)[C@@](C(=O)OC)(c3cc4c(cc3OC)N(C)[C@H]3[C@@](O)(C(=O)OC)[C@H](OC(C)=O)[C@]5(CC)C=CCN6CC[C@]43[C@@H]65)C2)C1
pIC50 (HCT-116): 9.22 | pIC50 [1]: 8.10 | pIC50 (L1210): 9.15

CC[C@]1(NC(=O)c2ccc3ncccc3c2)C[C@H]2CN(CCc3c([nH]c4ccccc34)[C@@](C(=O)OC)(c3cc4c(cc3OC)N(C)[C@H]3[C@@](O)(C(=O)OC)[C@H](OC(C)=O)[C@]5(CC)C=CCN6CC[C@]43[C@@H]65)C2)C1
pIC50 (HCT-116): 9.22 | pIC50 [1]: 8.31 | pIC50 (L1210): 9.22

CC[C@]1(NC(=O)c2nc3ccccc3o2)C[C@H]2CN(CCc3c([nH]c4ccccc34)[C@@](C(=O)OC)(c3cc4c(cc3OC)N(C)[C@H]3[C@@](O)(C(=O)OC)[C@H](OC(C)=O)[C@]5(CC)C=CCN6CC[C@]43[C@@H]65)C2)C1
pIC50 (HCT-116): 7.22 | pIC50 [1]: 6.72 | pIC50 (L1210): 7.22

CC[C@]1(NC(=O)c2ccc(C(F)(F)F)cc2)C[C@H]2CN(CCc3c([nH]c4ccccc34)[C@@](C(=O)OC)(c3cc4c(cc3OC)N(C)[C@H]3[C@@](O)(C(=O)OC)[C@H](OC(C)=O)[C@]5(CC)C=CCN6CC[C@]43[C@@H]65)C2)C1
pIC50 (HCT-116): 8.48 | pIC50 [1]: 7.26 | pIC50 (L1210): 8.37

CC[C@]1(NC(=O)c2ccc3ccccc3n2)C[C@H]2CN(CCc3c([nH]c4ccccc34)[C@@](C(=O)OC)(c3cc4c(cc3OC)N(C)[C@H]3[C@@](O)(C(=O)OC)[C@H](OC(C)=O)[C@]5(CC)C=CCN6CC[C@]43[C@@H]65)C2)C1
pIC50 (HCT-116): 7.40 | pIC50 [1]: 6.57 | pIC50 (L1210): 7.40

CC[C@]1(N=[N+]=[N-])C[C@H]2CN(CCc3c([nH]c4ccccc34)[C@@](C(=O)OC)(c3cc4c(cc3OC)N(C)[C@H]3[C@@](O)(C(=O)OC)[C@H](OC(C)=O)[C@]5(CC)C=CCN6CC[C@]43[C@@H]65)C2)C1
pIC50 [1]: 5.26

CC[C@]1(NC(=O)c2cccc(OC)c2)C[C@H]2CN(CCc3c([nH]c4ccccc34)[C@@](C(=O)OC)(c3cc4c(cc3OC)N(C)[C@H]3[C@@](O)(C(=O)OC)[C@H](OC(C)=O)[C@]5(CC)C=CCN6CC[C@]43[C@@H]65)C2)C1
pIC50 (HCT-116): 9.10 | pIC50 [1]: 8.06 | pIC50 (L1210): 9.22

CC[C@]1(NC(=O)c2ccc(SC)cc2)C[C@H]2CN(CCc3c([nH]c4ccccc34)[C@@](C(=O)OC)(c3cc4c(cc3OC)N(C)[C@H]3[C@@](O)(C(=O)OC)[C@H](OC(C)=O)[C@]5(CC)C=CCN6CC[C@]43[C@@H]65)C2)C1
pIC50 (HCT-116): 9.30 | pIC50 [1]: 8.17 | pIC50 (L1210): 9.40

CC[C@]1(NC(=O)c2ccncc2)C[C@H]2CN(CCc3c([nH]c4ccccc34)[C@@](C(=O)OC)(c3cc4c(cc3OC)N(C)[C@H]3[C@@](O)(C(=O)OC)[C@H](OC(C)=O)[C@]5(CC)C=CCN6CC[C@]43[C@@H]65)C2)C1
pIC50 (HCT-116): 9.40 | pIC50 [1]: 7.26 | pIC50 (L1210): 9.40

CC[C@]1(NC(=O)c2cocn2)C[C@H]2CN(CCc3c([nH]c4ccccc34)[C@@](C(=O)OC)(c3cc4c(cc3OC)N(C)[C@H]3[C@@](O)(C(=O)OC)[C@H](OC(C)=O)[C@]5(CC)C=CCN6CC[C@]43[C@@H]65)C2)C1
pIC50 (HCT-116): 8.40 | pIC50 [1]: 7.05 | pIC50 (L1210): 8.35

CC[C@]1(NC(=O)c2ccc3c(c2)CCN3)C[C@H]2CN(CCc3c([nH]c4ccccc34)[C@@](C(=O)OC)(c3cc4c(cc3OC)N(C)[C@H]3[C@@](O)(C(=O)OC)[C@H](OC(C)=O)[C@]5(CC)C=CCN6CC[C@]43[C@@H]65)C2)C1
pIC50 (HCT-116): 8.17 | pIC50 [1]: 7.22 | pIC50 (L1210): 8.29

CC[C@]1(NC(=O)c2ccc(N)cc2)C[C@H]2CN(CCc3c([nH]c4ccccc34)[C@@](C(=O)OC)(c3cc4c(cc3OC)N(C)[C@H]3[C@@](O)(C(=O)OC)[C@H](OC(C)=O)[C@]5(CC)C=CCN6CC[C@]43[C@@H]65)C2)C1
pIC50 (HCT-116): 9.40 | pIC50 [1]: 8.32 | pIC50 (L1210): 9.40

CC[C@]1(NC(=O)c2cccc(OC(F)(F)F)c2)C[C@H]2CN(CCc3c([nH]c4ccccc34)[C@@](C(=O)OC)(c3cc4c(cc3OC)N(C)[C@H]3[C@@](O)(C(=O)OC)[C@H](OC(C)=O)[C@]5(CC)C=CCN6CC[C@]43[C@@H]65)C2)C1
pIC50 (HCT-116): 8.23 | pIC50 [1]: 7.30 | pIC50 (L1210): 8.32

CC[C@]1(NC(=O)c2cccc(Br)c2)C[C@H]2CN(CCc3c([nH]c4ccccc34)[C@@](C(=O)OC)(c3cc4c(cc3OC)N(C)[C@H]3[C@@](O)(C(=O)OC)[C@H](OC(C)=O)[C@]5(CC)C=CCN6CC[C@]43[C@@H]65)C2)C1
pIC50 (HCT-116): 8.20 | pIC50 [1]: 7.22 | pIC50 (L1210): 8.30

CCCc1ccc(C(=O)N[C@@]2(CC)C[C@H]3CN(CCc4c([nH]c5ccccc45)[C@@](C(=O)OC)(c4cc5c(cc4OC)N(C)[C@H]4[C@@](O)(C(=O)OC)[C@H](OC(C)=O)[C@]6(CC)C=CCN7CC[C@]54[C@@H]76)C3)C2)cc1
pIC50 (HCT-116): 8.32 | pIC50 [1]: 7.46 | pIC50 (L1210): 8.37

CC[C@]1(NC(=O)c2cccc(S(=O)(=O)F)c2)C[C@H]2CN(CCc3c([nH]c4ccccc34)[C@@](C(=O)OC)(c3cc4c(cc3OC)N(C)[C@H]3[C@@](O)(C(=O)OC)[C@H](OC(C)=O)[C@]5(CC)C=CCN6CC[C@]43[C@@H]65)C2)C1
pIC50 (HCT-116): 7.52 | pIC50 [1]: 6.24 | pIC50 (L1210): 7.40

CC[C@]1(NC(=O)c2ccccc2OC)C[C@H]2CN(CCc3c([nH]c4ccccc34)[C@@](C(=O)OC)(c3cc4c(cc3OC)N(C)[C@H]3[C@@](O)(C(=O)OC)[C@H](OC(C)=O)[C@]5(CC)C=CCN6CC[C@]43[C@@H]65)C2)C1
pIC50 (HCT-116): 8.00 | pIC50 [1]: 7.00 | pIC50 (L1210): 7.52

CC[C@]1(NC(=O)c2ccc(SC(C)C)cc2)C[C@H]2CN(CCc3c([nH]c4ccccc34)[C@@](C(=O)OC)(c3cc4c(cc3OC)N(C)[C@H]3[C@@](O)(C(=O)OC)[C@H](OC(C)=O)[C@]5(CC)C=CCN6CC[C@]43[C@@H]65)C2)C1
pIC50 (HCT-116): 8.34 | pIC50 [1]: 7.26 | pIC50 (L1210): 8.37

CC[C@]1(NC(=O)c2ccc(OC)c(F)c2)C[C@H]2CN(CCc3c([nH]c4ccccc34)[C@@](C(=O)OC)(c3cc4c(cc3OC)N(C)[C@H]3[C@@](O)(C(=O)OC)[C@H](OC(C)=O)[C@]5(CC)C=CCN6CC[C@]43[C@@H]65)C2)C1
pIC50 (HCT-116): 9.22 | pIC50 [1]: 7.52 | pIC50 (L1210): 9.22

CC[C@]1(NC(=O)c2cncn2C)C[C@H]2CN(CCc3c([nH]c4ccccc34)[C@@](C(=O)OC)(c3cc4c(cc3OC)N(C)[C@H]3[C@@](O)(C(=O)OC)[C@H](OC(C)=O)[C@]5(CC)C=CCN6CC[C@]43[C@@H]65)C2)C1
pIC50 (HCT-116): 8.66 | pIC50 [1]: 7.10 | pIC50 (L1210): 8.40

CC[C@]1(NC(=O)c2cccnc2)C[C@H]2CN(CCc3c([nH]c4ccccc34)[C@@](C(=O)OC)(c3cc4c(cc3OC)N(C)[C@H]3[C@@](O)(C(=O)OC)[C@H](OC(C)=O)[C@]5(CC)C=CCN6CC[C@]43[C@@H]65)C2)C1
pIC50 (HCT-116): 9.22 | pIC50 [1]: 7.30 | pIC50 (L1210): 9.15

CC[C@@H]1C[C@H]2CN(CCc3c([nH]c4ccccc34)[C@@](C(=O)OC)(c3cc4c(cc3OC)N(C)[C@H]3[C@@](O)(C(=O)OC)[C@H](OC(C)=O)[C@]5(CC)C=CCN6CC[C@]43[C@@H]65)C2)C1 [ROSEAMINE]
pIC50 [1]: 6.22
